Experimental data taken from patent US9723837B2, “Imidazole derivatives useful for controlling microbial growth” (North Carolina State University, priority 2012, dated 2017).
Converted amounts (≈) assume the structure as drawn.

Legend:
MRSA ATCC BAA 44 = experiment: Broth microdilution MIC, MRSA ATCC BAA 44; format: cell-based, Staphylococcus aureus; details: for MIC MRSA: Table 2 pilot library screen; for MIC MRSA BAA 44: Table 3 nine-strain screen
Description: (§1) Each member of the pilot library was tested for antibiotic activity. Activity was quantified by measuring the MIC of each derivative against a variety of representative pathogenic bacterial strains using the microdilution protocol (CSLI, Performance Standards for Antimicrobial Susceptibility Testing; Nineteenth Informational Supplement, Clinical and Laboratory Standards Institute, Wayne, Pa., 2009). A. baumannii, E. coli, MSSA, and MRSA were used for initial evaluation. […] Compounds 4d, 4n, and 4o were determined to be the lead compounds.
(§2) Once it was noted that compounds were active against MSSA and MRSA, the library was tested against various MRSA strains isolated from a nosocomial environment. MRSA has emerged as a major cause of illness and death in hospitals. These illnesses include lower respiratory tract infections, surgical site infections, cardiovascular infections and pneumonia. Nine different MRSA strains were obtained, and lead compounds 4d and 4o were screened for activity.
(§3) Broth Microdilution Method for MIC Determination.
(§4) Overnight cultures of bacterial strain were subcultured to 5×10^5 CFU/mL in Mueller-Hinton medium (Fluka #70192). The resulting bacterial suspension was aliquoted (1.0 mL) into culture tubes. Samples were prepared from these culture tubes containing either 256 μg/mL of specified antibiotic or no test compound as a control. Samples were then aliquoted (200 μL) into the first row of wells of a 96-well microtiter plate in which subsequent wells were prefilled with 100 μL of Mueller-Hinton medium based 5×10^5 CFU/mL bacterial subculture. Using the multichannel pipettor set at 100 μL, row one wells were mixed 8-10 times. Then, 100 μL were withdrawn and transferred to row two. Row two wells were mixed 8-10 times followed by a 100 μL transfer from row two to row three. This procedure was used to serial dilute the rest of the rows of the microtier plate. The microtiter plate sample was then covered with a microtiter plate lid and then placed in a covered plastic container. The chamber was incubated under stationary conditions at 37° C.

A. baumannii = experiment: Broth microdilution MIC, A. baumannii; format: cell-based; details: Mueller-Hinton medium, 37° C., 16 hours
Description: as §1, §3, §4

MSSA = experiment: Broth microdilution MIC, MSSA; format: cell-based, Staphylococcus aureus; details: Mueller-Hinton medium, 37° C., 16 hours
Description: as §1, §3, §4

E. coli = experiment: Broth microdilution MIC, E. coli; format: cell-based; details: Mueller-Hinton medium, 37° C., 16 hours
Description: as §1, §3, §4

MRSA ATCC 43300 = experiment: Broth microdilution MIC, MRSA ATCC 43300; format: cell-based, Staphylococcus aureus
Description: as §2, §3
as §4, with “The microtiter plate sample was then covered with a microtiter plate lid and then placed in a covered plastic container. The chamber was incubated under stationary conditions at 37° C.” left out

MRSA ATCC BAA 1753 = experiment: Broth microdilution MIC, MRSA ATCC BAA 1753; format: cell-based, Staphylococcus aureus
Description: as §2, §3
as §4, with “The microtiter plate sample was then covered with a microtiter plate lid and then placed in a covered plastic container. The chamber was incubated under stationary conditions at 37° C.” left out

MRSA ATCC BAA 811 = experiment: Broth microdilution MIC, MRSA ATCC BAA 811; format: cell-based, Staphylococcus aureus
Description: as §2, §3
as §4, with “The microtiter plate sample was then covered with a microtiter plate lid and then placed in a covered plastic container. The chamber was incubated under stationary conditions at 37° C.” left out

MRSA ATCC 700789 = experiment: Broth microdilution MIC, MRSA ATCC 700789; format: cell-based, Staphylococcus aureus
Description: as §2, §3
as §4, with “The microtiter plate sample was then covered with a microtiter plate lid and then placed in a covered plastic container. The chamber was incubated under stationary conditions at 37° C.” left out

MRSA ATCC BAA 1556 = experiment: Broth microdilution MIC, MRSA ATCC BAA 1556; format: cell-based, Staphylococcus aureus
Description: as §2, §3
as §4, with “The microtiter plate sample was then covered with a microtiter plate lid and then placed in a covered plastic container. The chamber was incubated under stationary conditions at 37° C.” left out

MRSA ATCC BAA 1685 = experiment: Broth microdilution MIC, MRSA ATCC BAA 1685; format: cell-based, Staphylococcus aureus
Description: as §2, §3
as §4, with “The microtiter plate sample was then covered with a microtiter plate lid and then placed in a covered plastic container. The chamber was incubated under stationary conditions at 37° C.” left out

MRSA ATCC 33591 = experiment: Broth microdilution MIC, MRSA ATCC 33591; format: cell-based, Staphylococcus aureus
Description: as §2, §3
as §4, with “The microtiter plate sample was then covered with a microtiter plate lid and then placed in a covered plastic container. The chamber was incubated under stationary conditions at 37° C.” left out

MRSA ATCC BAA 1770 = experiment: Broth microdilution MIC, MRSA ATCC BAA 1770; format: cell-based, Staphylococcus aureus
Description: as §2, §3
as §4, with “The microtiter plate sample was then covered with a microtiter plate lid and then placed in a covered plastic container. The chamber was incubated under stationary conditions at 37° C.” left out

| SMILES | MIC MRSA (MRSA ATCC BAA 44) [µg/mL] | MIC A. baumannii (A. baumannii) [µg/mL] | MIC MSSA (MSSA) [µg/mL] | MIC E. coli (E. coli) [µg/mL] | MIC MRSA BAA 44 (MRSA ATCC BAA 44) [µg/mL] | MIC MRSA 43300 (MRSA ATCC 43300) [µg/mL] | MIC MRSA BAA 1753 (MRSA ATCC BAA 1753) [µg/mL] | MIC MRSA BAA 811 (MRSA ATCC BAA 811) [µg/mL] | MIC MRSA 700789 (MRSA ATCC 700789) [µg/mL] | MIC MRSA BAA 1556 (MRSA ATCC BAA 1556) [µg/mL] | MIC MRSA BAA 1685 (MRSA ATCC BAA 1685) [µg/mL] | MIC MRSA 33591 (MRSA ATCC 33591) [µg/mL] | MIC MRSA BAA 1770 (MRSA ATCC BAA 1770) [µg/mL] |
| --- | --- | --- | --- | --- | --- | --- | --- | --- | --- | --- | --- | --- | --- |
| Cc1nc(N)n(-c2ccccc2)c1-c1ccccc1 [Compound 4a] | 256 (≈ 1030 µM) | 128 (≈ 513 µM) | 256 (≈ 1030 µM) | 256 (≈ 1030 µM) | – | – | – | – | – | – | – | – | – |
| Nc1nc(-c2ccccc2)c(-c2ccccc2)n1-c1ccccc1 [Compound 4c] | >256 | >256 | >256 | >256 | – | – | – | – | – | – | – | – | – |
| CCCCCCCc1ccc(-n2c(N)nc(C)c2-c2ccccc2)cc1 [Compound 4d] | 2 (≈ 5.76 µM) | 64 (≈ 184 µM) | 4 (≈ 11.5 µM) | >256 | 2 (≈ 5.76 µM) | 2 (≈ 5.76 µM) | 4 (≈ 11.5 µM) | 2 (≈ 5.76 µM) | 4 (≈ 11.5 µM) | 4 (≈ 11.5 µM) | 4 (≈ 11.5 µM) | 8 (≈ 23 µM) | 8 (≈ 23 µM) |
| CCCCCCCc1ccc(-n2c(N)nc(CCCCCC)c2-c2ccccc2)cc1 [Compound 4e] | 128 (≈ 306 µM) | >256 | >256 | >256 | – | – | – | – | – | – | – | – | – |
| CCCCCCCCCCc1ccc(-n2c(N)nc(C)c2-c2ccccc2)cc1 [Compound 4g] | 4 (≈ 10.3 µM) | >256 | 32 (≈ 82.1 µM) | >256 | – | – | – | – | – | – | – | – | – |
| CCCCCCCCCCc1ccc(-n2c(N)nc(CCCCCC)c2-c2ccccc2)cc1 [Compound 4h] | >256 | >256 | >256 | >256 | – | – | – | – | – | – | – | – | – |
| Nc1nc(-c2ccccc2)c(-c2ccccc2)n1-c1ccc(-c2ccccc2)cc1 [Compound 4k] | >256 | >256 | >256 | >256 | – | – | – | – | – | – | – | – | – |
| Cc1ccc(-c2c(-c3ccccc3)nc(N)n2-c2ccccc2)cc1 [Compound 4m] | >256 | >256 | >256 | >256 | – | – | – | – | – | – | – | – | – |
| CCCc1ccc(-n2c(N)nc(C)c2-c2ccccc2)cc1 [Compound 4n] | 32 (≈ 110 µM) | 64 (≈ 220 µM) | 32 (≈ 110 µM) | 64 (≈ 220 µM) | – | – | – | – | – | – | – | – | – |
| CCCCCc1ccc(-n2c(N)nc(C)c2-c2ccccc2)cc1 [Compound 4o] | 4 (≈ 12.5 µM) | 16 (≈ 50.1 µM) | 8 (≈ 25 µM) | >256 | 4 (≈ 12.5 µM) | 8 (≈ 25 µM) | 8 (≈ 25 µM) | 8 (≈ 25 µM) | 8 (≈ 25 µM) | 8 (≈ 25 µM) | 8 (≈ 25 µM) | 8 (≈ 25 µM) | 8 (≈ 25 µM) |

Other lines, results leading:

| MIC MRSA (MRSA ATCC BAA 44) [µg/mL] | MIC A. baumannii (A. baumannii) [µg/mL] | MIC MSSA (MSSA) [µg/mL] | MIC E. coli (E. coli) [µg/mL] | MIC MRSA BAA 44 (MRSA ATCC BAA 44) [µg/mL] | MIC MRSA 43300 (MRSA ATCC 43300) [µg/mL] | MIC MRSA BAA 1753 (MRSA ATCC BAA 1753) [µg/mL] | MIC MRSA BAA 811 (MRSA ATCC BAA 811) [µg/mL] | MIC MRSA 700789 (MRSA ATCC 700789) [µg/mL] | MIC MRSA BAA 1556 (MRSA ATCC BAA 1556) [µg/mL] | MIC MRSA BAA 1685 (MRSA ATCC BAA 1685) [µg/mL] | MIC MRSA 33591 (MRSA ATCC 33591) [µg/mL] | MIC MRSA BAA 1770 (MRSA ATCC BAA 1770) [µg/mL] | SMILES |
| --- | --- | --- | --- | --- | --- | --- | --- | --- | --- | --- | --- | --- | --- |
| 8 (≈ 25 µM) | >256 | 16 (≈ 50.1 µM) | >256 | – | – | – | – | – | – | – | – | – | CCCCCCc1nc(N)n(-c2ccccc2)c1-c1ccccc1 [Compound 4b] |
| >256 | >256 | >256 | >256 | – | – | – | – | – | – | – | – | – | CCCCCCCc1ccc(-n2c(N)nc(-c3ccccc3)c2-c2ccccc2)cc1 [Compound 4f] |
| >256 | >256 | >256 | >256 | – | – | – | – | – | – | – | – | – | CCCCCCCCCCc1ccc(-n2c(N)nc(-c3ccccc3)c2-c2ccccc2)cc1 [Compound 4i] |
| 4 (≈ 10.1 µM) | >256 | 4 (≈ 10.1 µM) | >256 | – | – | – | – | – | – | – | – | – | CCCCCCc1nc(N)n(-c2ccc(-c3ccccc3)cc2)c1-c1ccccc1 [Compound 4j] |
| 4 (≈ 12 µM) | >256 | 8 (≈ 24 µM) | >256 | – | – | – | – | – | – | – | – | – | CCCCCCc1nc(N)n(-c2ccccc2)c1-c1ccc(C)cc1 [Compound 4l] |
